Test results reported in US8906868B2, “Aminoglycoside derivatives” (Rempex Pharmaceuticals, Inc., priority 2010, dated 2014).
≈ marks a conversion by molar mass, not a printed value. Where two headings read alike, the source gives them in different places.

Tests used:
[1] = tested on: ECM6006 aph(3′)-III; assay: microbe, parasite or virus in culture; assay type: cell-based, Escherichia coli; conditions: Escherichia coli
Procedure, shortened: (§1)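 Broth microdilution per CLSI M7-A7 in cation-adjusted Mueller Hinton broth, 2-fold serial dilutions, inoculum 5×10^5 CFU/ml from overnight colonies. Incubated 18 hours at 35° C. MIC read as turbidity at 600 nm, confirmed visually.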

[2] = tested on: ECM6009 aac(3)-II; assay: microbe, parasite or virus in culture; assay type: cell-based, Escherichia coli; conditions: Escherichia coli
Procedure, shortened: as §1

[3] = tested on: ECM6010 ant(2″)-I; assay: microbe, parasite or virus in culture; assay type: cell-based, Escherichia coli; conditions: Escherichia coli
Procedure, shortened: as §1

[4] = tested on: ECM6011 aph(3′)-I; assay: microbe, parasite or virus in culture; assay type: cell-based, Escherichia coli; conditions: Escherichia coli
Procedure, shortened: as §1

[5] = tested on: ECM6003 rmtB; assay: microbe, parasite or virus in culture; assay type: cell-based, Escherichia coli; conditions: Escherichia coli
Procedure, shortened: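 Broth microdilution per CLSI M7-A7 in cation-adjusted Mueller Hinton broth with 2-fold serial dilutions and 5×10^5 CFU/ml inoculum. Incubated 18 hours at 35 °C; MIC read by turbidity at 600 nm and confirmed visually.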

[6] = tested on: EC1001 acc(6′)-Ib; assay: microbe, parasite or virus in culture; assay type: cell-based, Escherichia coli; conditions: Escherichia coli
Procedure, shortened: (§2)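 Broth microdilution per CLSI guidelines: compounds serially diluted 2-fold in cation-adjusted Mueller Hinton broth, inoculum 5×10^5 CFU/ml from overnight colonies, 18 hours at 35° C. MIC read by turbidity at 600 nm and confirmed visually.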

[7] = tested on: ECM6007 aac(6′) + aph(2″); assay: microbe, parasite or virus in culture; assay type: cell-based, Escherichia coli; conditions: Escherichia coli
Procedure, shortened: as §2

[8] = tested on: ACM1005 ATCC 19004; assay: MIC, broth microdilution; assay type: cell-based, Acinetobacter baumannii; conditions: Acinetobacter baumannii, ATCC19004
Procedure, shortened: as §2

[9] = tested on: PAM3072 aac(6′)-II; assay: microbe, parasite or virus in culture; assay type: cell-based, Pseudomonas aeruginosa; conditions: Pseudomonas aeruginosa
Procedure, shortened: as §2

[10] = tested on: PAM3073 aac(6′)-I; assay: microbe, parasite or virus in culture; assay type: cell-based, Pseudomonas aeruginosa; conditions: Pseudomonas aeruginosa
Procedure, shortened: as §2

[11] = tested on: Citrobacter freundii CFM1000 ATCC 8090; assay: MIC, representative strains; assay type: cell-based; conditions: ATCC8090, read-out: MIC Citrobacter freundii CFM1000 ATCC 8090
Method: (§3) To compare microbiological activity of the test compounds, minimum inhibitory concentrations (MIC.s) were determined. Antibiotic MICs were obtained using the broth microdilution method according to Clinical and Laboratory Standards Institute (CLSI) approved guidelines (Methods for dilution antimicrobial susceptibility tests for bacteria that grow aerobically; approved standard—7th ed. CLSI document M7-A7. Clinical and Laboratory Standards Institute, Wayne, Pa., incorporated herein by reference in its entirety). Antibiotics were dissolved as specified by CLSI (Performance standards for antimicrobial susceptibility testing; Seventeenth informational supplement. CLSI document M100-S17. Clinical and Laboratory Standards Institute, Wayne, Pa., incorporated herein by reference in its entirety), and were serially diluted 2-fold in cation adjusted Mueller Hinton Broth (CaMHB) at 2× concentration. Bacterial inoculums were prepared in CaMHB by suspension of a colony from an agar plate that was prepared the previous day to obtain a final concentration of 5×10^5CFU/ml. The plates were incubated for 18 hours at 35° C. […] MIC.s were determined by reading the turbidity of plate wells using a SpectraMax Plus384 plate reader (Molecular Devices, Sunnyvale, Calif., USA) at 600 nm and were confirmed by visual inspection.

[12] = tested on: Enterobacter cloacae ECLM1000 ATCC 13047; assay: MIC, representative strains; assay type: cell-based; conditions: ATCC13047, read-out: MIC Enterobacter cloacae ECLM1000 ATCC 13047
Method: as §3

[13] = tested on: Pseudomonas aeruginosa PAM2859 multiple pumps deleted; assay: MIC, representative strains; assay type: cell-based; conditions: read-out: MIC Pseudomonas aeruginosa PAM2859 multiple pumps deleted
Method: as §3

[14] = tested on: Pseudomonas aeruginosa PAM2900 PAM2859/pXY; assay: MIC, representative strains; assay type: cell-based; conditions: read-out: MIC Pseudomonas aeruginosa PAM2900 PAM2859/pXY
Method: as §3

[15] = tested on: Staphylococcus aureus SAM1001 ATCC 25923; assay: MIC, representative strains; assay type: cell-based; conditions: ATCC25923, read-out: MIC Staphylococcus aureus SAM1001 ATCC 25923
Method: as §3

[16] = tested on: Escherichia coli (ATCC 25922); assay: MIC, broth microdilution; conditions: Escherichia coli
[17] = tested on: Klebsiella pneumonia (ATCC 43816); assay: MIC, broth microdilution; conditions: Klebsiella pneumoniae
[18] = tested on: Pseudomonas aeruginosa (ATCC 27853); assay: MIC, broth microdilution; conditions: Pseudomonas aeruginosa
[19] = tested on: Acinetobacter baumannii (ATCC 19606); assay: MIC, broth microdilution; conditions: Acinetobacter baumannii
[20] = read-out: Compound MIC on Bacterial Strains: ECM6006 aph(3′)-III
[21] = read-out: MIC Escherichia coli ECM6006 aph(3′)-III
[22] = read-out: Compound MIC on Bacterial Strains: ECM6009 aac(3)-II
[23] = read-out: MIC Escherichia coli ECM6009 aac(3)-II, aph(3′)
[24] = read-out: Compound MIC on Bacterial Strains: ECM6010 ant(2″)-I
[25] = read-out: MIC Escherichia coli ECM6010 ant(2″)
[26] = read-out: Compound MIC on Bacterial Strains: ECM6011 aph(3′)-I
[27] = read-out: MIC Escherichia coli ECM6011 aph(3′)-I
[28] = Table 3, read-out: Compound MIC on Bacterial Strains: ECM6003 rmtB
[29] = Table 8, read-out: MIC Escherichia coli ECM6003 rmtB
[30] = Table 4, read-out: Compound MIC on Bacterial Strains: Escherichia coli EC1001 acc(6′)-Ib
[31] = Table 8, read-out: MIC Escherichia coli EC1001 aac(6′)-Ib
[32] = 18 h, Table 4, read-out: Compound MIC on Bacterial Strains: Escherichia coli ECM6007 aac(6′) + aph(2″)
[33] = Table 8, read-out: MIC Escherichia coli ECM6007 aac(6′) + aph(2″)
[34] = Table 4, read-out: Compound MIC on Bacterial Strains: Acinetobacter baumannii ACM1005 ATCC 19004
[35] = Table 7, read-out: MIC Acinetobacter baumannii ACM1005 ATCC 19004
[36] = Table 5, read-out: Compound MIC on Bacterial Strains: Pseudomonas aeruginosa PAM3072 aac(6′)-II
[37] = Table 8, read-out: MIC Pseudomonas aeruginosa PAM3072 aac(6′)-II or III
[38] = Table 5, read-out: Compound MIC on Bacterial Strains: Pseudomonas aeruginosa PAM3073 aac(6′)-I
[39] = Table 8, read-out: MIC Pseudomonas aeruginosa PAM3073 aac(6′)-I, wt efflux
[40] = ATCC25922, read-out: Compound MIC on Bacterial Strains: E. coli ATCC 25922
[41] = ATCC25922, read-out: Compound MIC on Bacterial Strains: ECM6000 ATCC 25922
[42] = ATCC25922, read-out: Compound MIC on Bacterial Strains: Escherichia coli ECM6000 ATCC 25922
[43] = ATCC25922, read-out: MIC Escherichia coli ECM6025 ATCC 25922
[44] = ATCC43816, read-out: Compound MIC on Bacterial Strains: K. pneumonia ATCC 43816
[45] = ATCC43816, read-out: MIC Klebsiella pneumoniae KPM1001 ATCC 43816
[46] = ATCC27853, read-out: Compound MIC on Bacterial Strains: P. aeruginosa ATCC 27853
[47] = ATCC27853, read-out: Compound MIC on Bacterial Strains: Pseudomonas aeruginosa PAM3034 ATCC 27853
[48] = ATCC27853, read-out: MIC Pseudomonas aeruginosa PAM3034 ATCC 27853
[49] = ATCC19606, read-out: Compound MIC on Bacterial Strains: A. baumannii ATCC 19606
[50] = ATCC19606, read-out: MIC Acinetobacter baumannii ACM1003 ATCC 19606

Structure (SMILES) | MIC [1, 20] [µg/mL] | MIC [1, 21] [µg/mL] | MIC [2, 22] [µg/mL] | MIC [2, 23] [µg/mL] | MIC [3, 24] [µg/mL] | MIC [3, 25] [µg/mL] | MIC [4, 26] [µg/mL] | MIC [4, 27] [µg/mL] | MIC [5, 28] [µg/mL] | MIC [5, 29] [µg/mL] | MIC [6, 30] [µg/mL] | MIC [6, 31] [µg/mL] | MIC [7, 32] [µg/mL] | MIC [7, 33] [µg/mL] | MIC [8, 34] [µg/mL] | MIC [8, 35] [µg/mL] | MIC [9, 36] [µg/mL] | MIC [9, 37] [µg/mL] | MIC [10, 38] [µg/mL] | MIC [10, 39] [µg/mL] | also measured
CN[C@@H]1[C@@H](O)[C@@H](O[C@@H]2[C@@H](O)[C@H](O[C@H]3O[C@H](CNC[C@H](O)CO)CC[C@H]3N)[C@@H](N)C[C@H]2NC(=O)[C@@H](O)CN)OC[C@]1(C)O [Compound 45, (S)-3-amino-N-((1R,2S,3S,4R,5S)-5-amino-4-((2R,3R,6S)-3-amino-6-(((S)-2,3-dihydroxypropylamino)methyl)tetrahydro-2H-pyran-2-yloxy)-2-((2R,3R,4R,5R)-3,5-dihydroxy-5-methyl-4-(methylamino)tetrahydro-2H-pyran-2-yloxy)-3-hydroxycyclohexyl)-2-hydroxypropanamide] | < 1 | 1 to 8 (≈ 1.64 to 13.1 µM) | < 1 | < 1 | < 1 | < 1 | < 1 | < 1 | > 8 | > 8 | 1 to 8 (≈ 1.64 to 13.1 µM) | 1 to 8 (≈ 1.64 to 13.1 µM) | < 1 | < 1 | 1 to 8 (≈ 1.64 to 13.1 µM) | 1 to 8 (≈ 1.64 to 13.1 µM) | > 8 | > 8 | 1 to 8 (≈ 1.64 to 13.1 µM) | 1 to 8 (≈ 1.64 to 13.1 µM) | MIC [11]: < 1 µg/mL; MIC [12]: < 1 µg/mL; MIC [13]: < 1 µg/mL; MIC [14]: > 8 µg/mL; MIC [15]: < 1 µg/mL; MIC [16, 40]: < 1 µg/mL; MIC [16, 41]: < 1 µg/mL; MIC [16, 42]: < 1 µg/mL; MIC [16, 43]: < 1 µg/mL; MIC [17, 44]: < 1 µg/mL; MIC [17, 45]: < 1 µg/mL; MIC [18, 46]: 1 to 8 µg/mL (≈ 1.64 to 13.1 µM); MIC [18, 47]: 1 to 8 µg/mL (≈ 1.64 to 13.1 µM); MIC [18, 48]: 1 to 8 µg/mL (≈ 1.64 to 13.1 µM); MIC [19, 49]: > 8 µg/mL; MIC [19, 50]: > 8 µg/mL
CN[C@@H]1C(O)[C@@H](OC2C(O)C(O[C@H]3O[C@H](CNC[C@@H](O)CO)CCC3N)[C@@H](N)C[C@H]2NC(=O)[C@@H](O)CN)OCC1(C)O (stereo partly drawn) [Compound 44] | < 1 | 1 to 8 (≈ 1.64 to 13.1 µM) | < 1 | < 1 | < 1 | < 1 | < 1 | < 1 | > 8 | > 8 | < 1 | < 1 | < 1 | < 1 | 1 to 8 (≈ 1.64 to 13.1 µM) | 1 to 8 (≈ 1.64 to 13.1 µM) | > 8 | > 8 | 1 to 8 (≈ 1.64 to 13.1 µM) | 1 to 8 (≈ 1.64 to 13.1 µM) | MIC [11]: < 1 µg/mL; MIC [12]: < 1 µg/mL; MIC [13]: < 1 µg/mL; MIC [14]: > 8 µg/mL; MIC [15]: < 1 µg/mL; MIC [16, 40]: < 1 µg/mL; MIC [16, 41]: < 1 µg/mL; MIC [16, 42]: < 1 µg/mL; MIC [16, 43]: < 1 µg/mL; MIC [17, 44]: < 1 µg/mL; MIC [17, 45]: < 1 µg/mL; MIC [18, 46]: 1 to 8 µg/mL (≈ 1.64 to 13.1 µM); MIC [18, 47]: 1 to 8 µg/mL (≈ 1.64 to 13.1 µM); MIC [18, 48]: 1 to 8 µg/mL (≈ 1.64 to 13.1 µM); MIC [19, 49]: > 8 µg/mL; MIC [19, 50]: > 8 µg/mL
